Measurements reported in PubChem BioAssay AID651703 (Broad Institute, 2012).

The compounds below were run against Transforming acidic coiled-coil-containing protein 3 (Homo sapiens) (UniProt Q9Y6A5) (assay: inhibition of ARNT PAS-B/TACC3 complex formation – biochemical, AlphaScreen, cherry-picked samples, confirmation (AID 651703;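 further: TACC3 partner is the GST-tagged E629A mutant dimer; hits lower the signal meaning they disrupt ARNT binding to TACC3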)). Conditions: AlphaScreen His-ARNT PAS-B / GST-TACC3 binding, luminescence.

Compound | AC50
O=C(Oc1c(CN2CCOCC2)cc(Cl)c2cccnc12)c1cccs1 | 15.2 µM
O=C(Nc1nnc(C2=COCCO2)o1)c1ccc([N+](=O)[O-])cc1 | 34.3 µM
CC(C)(C)OC(=O)N1CCN(Cc2ccc(O)c3ncccc23)CC1 | 0.625 µM
COc1ccc(NC(=O)CSc2nnc(-c3ccccn3)n2N)cc1 | 13.2 µM
Cc1[nH]n(-c2ccccc2)c(=O)c1/C=N/NC(=O)COc1ccccc1[N+](=O)[O-] | 15.8 µM
CCCC(=O)NC(c1ccc(N(C)C)cc1)c1ccc2cccnc2c1O (configuration not stated) | 5.3 µM
COc1ccc(-c2nc(C#N)c(N3CCCCC3)o2)cc1 | 32.2 µM
CC(C)(C)c1ccc(CNc2nc(-c3ccccn3)nnc2-c2ccccc2)cc1 | 1.33 µM
COc1ccc(C2c3ccc(O)cc3Oc3ncn4nc(-c5ccccn5)nc4c32)cc1OC (configuration not stated) | 52.5 µM
O=C(CSc1ccc2nnc(-c3ccccn3)n2n1)Nc1ccccc1C(F)(F)F | 50.7 µM
O=C(NNc1ccccn1)C(=O)NNS(=O)(=O)c1ccc(Cl)cc1 | 15.6 µM
O=C(CSc1cccc2cccnc12)Nc1ccc(S(=O)(=O)N2CCOCC2)cc1 | 10.9 µM
O=C(N[C@@H]1CC[C@H](CCn2cc(-c3ccccn3)nn2)O[C@H]1CO)c1ccncc1 | 7.57 µM
O=C(NCCCn1ccnc1)C(=O)NCC1OCCN1S(=O)(=O)c1ccc2c(c1)OCCO2 (configuration not stated) | 13.2 µM
O=C(CSc1nnc(-c2cccnc2)o1)Nc1nccs1 | 17.7 µM
C[C@H]1CN([C@@H](C)CO)C(=O)Cc2cc(NC(=O)Nc3cccc4ccccc34)ccc2O[C@@H]1CN(C)Cc1ccc(Oc2ccccc2)cc1 | 47.3 µM
COc1ccc(O)c(/C=N\NC(=O)CCn2nnc3ccccc32)c1 | 33.4 µM
CN1CCN(C(=O)c2cccc(-c3cc(O)c4ncccc4c3)c2)CC1 | 2.72 µM
COc1cc2c(c(OC)c1OC)-c1ccc(O)c(=O)cc1[C@@H](NC(C)=O)CC2 | 40.8 µM

Compound | AC50
CCCC(=O)NC(c1ccccc1)c1ccc2cccnc2c1O (configuration not stated) | 4.6 µM
c1ccc(-c2cnc(-c3ccccn3)nn2)cc1 | 3.23 µM
CC1(C)Cc2c(sc3nc4n(-c5ccccc5)c(=O)c(CCC(=O)O)nn4c(=O)c23)CO1 | 19.2 µM
Cc1ccc(C(=O)Nc2nc(-c3ccccn3)cs2)o1 | 2.07 µM
Nc1nnc2c(n1)CCCC2 | 4.63 µM
Oc1c(C(Nc2ccccn2)c2cccnc2)cc(Cl)c2cccnc12 (configuration not stated) | 5.67 µM
Cc1cccc(S(=O)(=O)N[C@@H]2CC[C@@H](CCn3cc(-c4ccccn4)nn3)O[C@@H]2CO)c1 | 26.7 µM
COc1ccc(/C=N/Nc2nncn2N)cc1Br | 25.1 µM
O=C(Nc1ccccc1C(F)(F)F)c1ncn[nH]1 | 13.1 µM
Oc1c(Cl)cc(CN2CCOCC2)c2cccnc12 | 1.15 µM
COc1ccc(Nc2cc3n(c(=O)n2)CCc2cc(OC)c(OC)cc2-3)cc1 | 68.6 µM
Cn1c(-c2ccccc2)cnc1Nc1nc(-c2ccccn2)nnc1-c1ccccc1 | 2.26 µM
O=C(N/N=C/c1cc(Br)ccc1OC(=O)c1ccc(Br)cc1)c1ccncc1 | 4.24 µM
Nn1c(SC/C=C/c2ccccc2)nnc1-c1ccccn1 | 5.62 µM
Cc1ccc(CNc2nc(-c3ccccn3)nnc2-c2ccccc2)cc1C | 0.558 µM
COc1ccc(NC(=O)N[C@H]2CC[C@H](CCn3cc(-c4ccccn4)nn3)O[C@@H]2CO)cc1 | 12 µM
O=C(CSc1ccc(-c2ccccn2)nn1)NCc1ccc(Cl)cc1 | 11 µM
c1cncc(-c2nc(NCCCn3ccnc3)c3ccccc3n2)c1 | 16.2 µM
CC(NC(=O)c1ccco1)C(=O)Nc1nc(-c2ccccn2)cs1 (configuration not stated) | 4.52 µM

Compound | AC50
O=C(NC[C@H]1[C@@H](c2ccccc2)[C@@H](CO)N1Cc1ccccn1)C1CC1 | 48.4 µM
O=C(N[C@@H]1CC[C@@H](CCn2cc(-c3ccccn3)nn2)O[C@H]1CO)c1ccc(F)cc1 | 10.2 µM
O=C(COC(=O)c1cccs1)Nc1nnc(-c2ccccc2)o1 | 14.1 µM
CCOC(=O)Cc1nnc(NC(=O)c2ncn[nH]2)s1 | 23.2 µM
NS(=O)(=O)c1ccc(N=Nc2c[nH]c(=O)c(O)c2)cc1 | 57.9 µM
O=C(N[C@@H]1CC[C@H](CCn2cc(-c3ccccn3)nn2)O[C@@H]1CO)c1ccccc1 | 20.7 µM
Cc1[nH]n(-c2ccccc2)c(=O)c1/C=N/N(c1ccccc1)c1ccccc1 | 16.2 µM
NNc1nnc(-c2ccccc2)c(-c2ccccc2)n1 | 8.66 µM
O=C(CSc1cccc2cccnc12)Nc1ccccc1F | 19.5 µM
N[C@H]1CC[C@@H](CCn2cc(-c3ccccn3)nn2)O[C@H]1CO | 1.42 µM
COc1cc(CNCc2ccccn2)ccc1OCc1ccc(Cl)cc1Cl | 36.6 µM
COc1ccc(S(=O)(=O)N2CCOC2CNC(=O)C(=O)NCCCn2ccnc2)cc1OC (configuration not stated) | 22.4 µM
O=C(Nc1nc(NC(=O)c2ccco2)n(-c2ccccc2)n1)c1ccccc1 | 12.9 µM
CC(C)Nc1nc(NC(C)C)nc(C(=O)OCCO)n1 | 41.8 µM
COc1ccccc1C(CCNCc1ccc(N(C)C)cc1)c1ccc(OC(C)C)cc1 (configuration not stated) | 7.83 µM
CCOc1cccc(/C=N/NC(=O)c2cccnc2)c1O | 21.6 µM
O=C(N[C@H]1CC[C@H](CCn2cc(-c3ccccn3)nn2)O[C@@H]1CO)c1ccncc1 | 14.8 µM
O=C(N/N=C/c1cc([N+](=O)[O-])ccc1O)c1ccncc1 | 1.01 µM
CC(C)C(=O)NC(c1cccc([N+](=O)[O-])c1)c1ccc2cccnc2c1O (configuration not stated) | 3.82 µM
